The subject of assay [1] is Balb/c 3T3 cells. Nature of the assay: TPC assay (total protein content), 72 h exposure. Particulars: Balb/c 3T3, TPC, mean ± SD, n = 3. Type of assay: cell-based, murine. The method, then:
(§1) The human hepatoma (HepG2) and colorectal adenocarcinoma (Caco-2) cells were purchased from the American Type Culture Collection: ATCC HB-8065 and ATCC HTB-37, respectively. These cells were cultured in Minimum Essential Medium Eagle (MEME) (ATCC). The murine fibroblasts cell line (Balb/c 3T3 clone A31) (gift from the Department of Swine Diseases of the National Veterinary Research Institute in Pulawy) was cultured in Dulbecco’s Modified Eagle Medium (DMEM) (ATCC). The media were supplemented with 10% BCS (Balb/c 3T3), 10% FBS (HepG2), 20% FBS (Caco-2), 1% L-glutamine, 1% antibiotic solution. The cells were maintained in 75 cm^2 cell culture flasks (NUNC) in a humidified incubator at 37 °C in an atmosphere of 5% CO2. The medium was refreshed every two or three days, and the cells were trypsinized by 0.25% trypsin–0.02% EDTA after reaching 70–80% confluence. Single cell suspensions were prepared and adjusted to a density of 2 × 10^5 cell/mL^−1 (HepG2), 1 × 10^5 cell/mL^−1 (Caco-2) and 5 × 10^4 cell/mL^−1 (Balb/c 3T3). The cell suspension was transferred to 96-well plates (100 µL/well) and incubated for 24 h before the exposure to the studied compounds. Stock solutions of ligands and metal complexes were prepared in sterile water and diluted with culture medium to obtain a concentration range from 0.1 to 10 µM. The final concentration of sterile water was 0.1% in the medium. […] As a negative control, cultured cells were grown in the absence of studied compounds. Each concentration was tested in six replicates in three independent experiments. Cytotoxicity was assessed after 72 h of exposure of the cells to compounds. The medium was not changed during the incubation time.
This assay is based upon staining the total cellular protein (proliferation). […] The absorbance was measured at 595 nm in a microplate reader Synergy HTX multi-mode reader (BioTek® Instruments Inc., Winooski, VT, USA) using a blank as a reference. Cytotoxicity was expressed as a percentage of the negative control. […]

For assay [2], the system named is Balb/c 3T3 cells. Description: LDH leakage assay (membrane integrity), 72 h exposure. The assay is classed as cell-based, murine. To be noted: Balb/c 3T3, LDH, mean ± SD, n = 3. As for the experimental part: as §1
(§2) The integrity of the plasma membrane was assessed through the test of lactate dehydrogenase (LDH) release, which was monitored using the commercially available Cytotoxicity Detection Kit (LDH) (Roche Diagnostics, Warsaw, Poland). […] The absorbance was measured at 492 nm in a microplate reader Synergy HTX multi-mode reader (BioTek® Instruments Inc., Winooski, VT, USA) using a blank as a reference. […]

The subject of another assay is HepG2 cells. Described as above. The assay is classed as cell-based, human. To be noted: mean ± SD, n = 3. The method, then:
as §1, §2

Assay [3] concerns Balb/c 3T3 cells. Nature of the assay: NRU assay (lysosomal activity), 72 h exposure. The assay is classed as cell-based, murine. Particulars: Balb/c 3T3, NRU, mean ± SD, n = 3. The method, then: as §1
This method is based on staining living cells with neutral red, which readily diffuses through the plasma membrane and accumulates in lysosomes. […] After 10 min of shaking, the absorbance of the dissolved NR was measured using a Synergy HTX multi-mode reader (BioTek® Instruments Inc., Winooski, VT, USA) at 540 nm using a blank as a reference. Cytotoxicity was expressed as a percentage of the negative control. […]

Assay [4] relates to Balb/c 3T3 cells. Description: MTT assay (mitochondrial activity), 72 h exposure. Type of assay: cell-based, murine. To be noted: Balb/c 3T3, MTT, mean ± SD, n = 3. The method, then:
as §1
The metabolic activity of living cells was assessed by the measurement of the activity of dehydrogenases. […] The plate was shaken for 15 min at room temperature and transferred to a microplate reader Synergy HTX multi-mode reader (BioTek® Instruments Inc., Winooski, VT, USA) to measure the absorbance at 570 nm, using a blank as a reference. Cytotoxicity was expressed as a percentage of the negative control. […]
For orientation: Tetrazolium assays rely on reduction of a dye to a coloured formazan, in cell work by metabolically active cells.

Each structure is given as a SMILES string.

The IC50 is the concentration that inhibits the measured activity by half. With `N.N.[Cl][Pt][Cl]` [Cisplatin, cisplatin], the half-inhibitory concentration (IC50) with Balb/c 3T3 cells [1] was above 10 µM; with Balb/c 3T3 cells [2], above 10 µM; in the assay with HepG2 cells it was below 0.1 µM; with Balb/c 3T3 cells [3], above 10 µM; in the assay with Balb/c 3T3 cells [4] it was above 10 µM.

The values are drawn from article PMC8869984, “Multifunctional Silver(I) Complexes with Metronidazole Drug Reveal Antimicrobial Properties and Antitumor Activity against Human Hepatoma and Colorectal Adenocarcinoma Cells” (Cancers, 2022).
